Measured values published in US20080188554A1, “METHODS OF TREATING AVIAN HYPERTENSION” (Regents of the University of California Office of …, priority 2006, published 2008).
Marks after values point to notes of the source that are not given here.

Tests used:
Recombinant chicken sEH = Recombinant chicken sEH (Gallus gallus, UniProt Q45QT1); experiment: Non-radioactive epoxide hydrolase assay (HPLC-MS/MS), specific activity of substrates; type: biochemical; settings: compound as substrate, 50 μM, 30° C., 10 min
Procedure: The trans-9,10-epoxystearate was purchased (Sigma-Aldrich). A 5 mM solution of each substrate was made in ethanol for the EETs and methanol for the epoxystearate. The substrate solution (1 μL) was added to 100 μL of enzyme preparation in sodium phosphate buffer (0.1 M, pH 7.4) containing 0.1 mg/mL of BSA ([S]final=50 μM). The enzyme was incubated with the substrate at 30° C. for 10 min, and the reaction quenched by addition of 400 μL of methanol. The products were analyzed by HPLC-MS/MS as previously described (Newman, J. W. et al., J. Lipid Res. 43:1563-1578 (2002)) with the following exceptions. A 2.0×20 mm, 3-μm Luna C18 Mercury MS column (Phenomenex, Torrance, Calif.) was used with a 350 μL/min isocratic flow of […] (vol/vol/vol) acetonitrile/water/methanol with 0.1% glacial acetic acid for 2.5 min. Assays were performed in triplicate.

mouse sEH = biological target: T1, mouse sEH (Mus musculus, UniProt P34914); settings: compound as substrate, from Morisseau 2000; cited from earlier work
T1 sequence (P34914 1-554): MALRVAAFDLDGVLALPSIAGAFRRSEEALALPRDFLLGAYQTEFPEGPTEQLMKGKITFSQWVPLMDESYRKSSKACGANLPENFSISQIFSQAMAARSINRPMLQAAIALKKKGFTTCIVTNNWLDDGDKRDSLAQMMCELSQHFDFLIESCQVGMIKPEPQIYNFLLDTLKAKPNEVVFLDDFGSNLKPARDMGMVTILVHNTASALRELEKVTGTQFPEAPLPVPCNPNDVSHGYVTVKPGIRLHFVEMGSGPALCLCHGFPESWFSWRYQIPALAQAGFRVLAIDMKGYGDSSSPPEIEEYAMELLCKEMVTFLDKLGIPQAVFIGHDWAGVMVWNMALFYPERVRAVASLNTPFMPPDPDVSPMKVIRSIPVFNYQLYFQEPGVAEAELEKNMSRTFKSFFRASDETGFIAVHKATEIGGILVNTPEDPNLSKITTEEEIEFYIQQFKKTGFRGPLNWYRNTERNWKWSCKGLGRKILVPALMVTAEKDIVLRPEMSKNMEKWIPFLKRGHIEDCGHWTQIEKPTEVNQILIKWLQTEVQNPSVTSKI

sEH = biological target: T2, sEH (Homo sapiens, UniProt P34913); experiment: sEH inhibition, general statements on earlier tests; type: biochemical; settings: statement in words, no method given
T2 sequence (P34913 1-555): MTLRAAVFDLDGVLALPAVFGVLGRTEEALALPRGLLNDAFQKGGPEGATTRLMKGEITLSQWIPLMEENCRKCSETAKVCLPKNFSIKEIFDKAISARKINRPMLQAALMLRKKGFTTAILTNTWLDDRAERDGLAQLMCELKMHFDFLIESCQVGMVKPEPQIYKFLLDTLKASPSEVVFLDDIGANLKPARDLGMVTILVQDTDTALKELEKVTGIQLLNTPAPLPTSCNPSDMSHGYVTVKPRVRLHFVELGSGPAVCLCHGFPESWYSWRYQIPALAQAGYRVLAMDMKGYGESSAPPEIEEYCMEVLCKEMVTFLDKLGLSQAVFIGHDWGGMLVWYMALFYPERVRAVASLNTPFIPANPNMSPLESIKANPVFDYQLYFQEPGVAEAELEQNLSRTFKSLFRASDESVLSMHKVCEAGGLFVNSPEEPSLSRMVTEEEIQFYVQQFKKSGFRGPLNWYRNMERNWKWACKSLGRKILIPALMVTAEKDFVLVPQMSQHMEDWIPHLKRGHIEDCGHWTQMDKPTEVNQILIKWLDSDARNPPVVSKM

Recombinant chicken sEH, sequence (Q45QT1 entry or part of it): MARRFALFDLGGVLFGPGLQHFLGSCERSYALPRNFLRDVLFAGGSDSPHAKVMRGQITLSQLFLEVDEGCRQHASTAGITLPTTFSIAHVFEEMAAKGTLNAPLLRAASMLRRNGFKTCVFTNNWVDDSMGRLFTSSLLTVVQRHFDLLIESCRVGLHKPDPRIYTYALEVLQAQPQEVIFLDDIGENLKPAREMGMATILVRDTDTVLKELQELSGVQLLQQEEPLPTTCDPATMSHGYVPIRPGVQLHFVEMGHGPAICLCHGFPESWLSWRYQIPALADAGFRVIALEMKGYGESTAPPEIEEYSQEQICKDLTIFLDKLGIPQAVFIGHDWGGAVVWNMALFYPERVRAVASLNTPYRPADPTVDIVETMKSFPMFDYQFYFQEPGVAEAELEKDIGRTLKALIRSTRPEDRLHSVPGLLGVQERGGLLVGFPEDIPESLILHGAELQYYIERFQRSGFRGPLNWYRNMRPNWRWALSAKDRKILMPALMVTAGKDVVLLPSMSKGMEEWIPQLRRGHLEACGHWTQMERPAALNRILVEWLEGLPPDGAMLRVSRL

Q: Which Specific activity (Recombinant chicken sEH) does the source give for `CCCCCCCCC1OC1CCCCCCCC(=O)O` (stereo not drawn) [cis-9,10-epoxystearic acid] here?
A: Its Specific activity is 3.1 ± 0.2 nmol/min/mg.

Q: What about the Specific activity (mouse sEH) of the same compound?
A: The Specific activity was 1139 ± 34* nmol · min^−1 · mg^−1.

Q: For `CCCCCCCCCCCCNC(=O)NC12CC3CC(CC(C3)C1)C2` [ADU, N-Adamantyl-N′-dodecyl urea], which “Activity as inhibitor of sEH” value (sEH) is on record?
A: Its value is “particularly high activity”.
